Measurements reported in patent US20250057748A1, “FORMULATIONS OF DIHYDROKAEMPFEROL” (DEBUT BIOTECHNOLOGY, INC., priority 2023, published 2025).

Columns and labels:
[1] = Dihydrokaempferol stability at 70° C. in various solvents; type: physicochemical
Procedure: Table 2, provided below, provides stability data for compositions comprising dihydrokaempferol in various solvents, when stored at 70° C. for up to one (1) month.

[2] = ABTS antioxidant assay (aqueous medium); type: biochemical
Excerpt: The 2,2′-Azinobis [3-ethylbenzothiazoline-6-sulfonic acid]-diammonium salt (ABTS) antioxidant assay is designed to evaluate the antioxidant activity of compositions comprising dihydrokaempferol in an aqueous medium.
ABTS+ solution is generated as a free radical and used to measure relative ability of a compound to scavenge free radicals. Reduction of the absorbance at 734 nm was standardized to solvent control as an indication of ABTS+ scavenging.

[3] = target: T1, human neutrophil elastase (Homo sapiens, UniProt P08246); experiment: Elastase enzyme inhibition; type: biochemical
T1 sequence (P08246 30-267): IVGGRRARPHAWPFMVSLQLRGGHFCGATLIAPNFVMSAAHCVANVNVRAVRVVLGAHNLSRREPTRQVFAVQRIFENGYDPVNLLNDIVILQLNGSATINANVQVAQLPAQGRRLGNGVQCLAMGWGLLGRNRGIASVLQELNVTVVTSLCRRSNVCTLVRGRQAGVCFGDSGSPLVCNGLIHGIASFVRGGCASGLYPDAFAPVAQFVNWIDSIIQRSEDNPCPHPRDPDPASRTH
Procedure: The assay was conducted to evaluate the elastase enzyme inhibition activity of compositions comprising dihydrokaempferol.
Neutrophil infiltration and neutrophil elastase are both increased in the skin in response to UV stress. […] Therefore, inhibition of this enzyme, particularly in combination with antioxidant activity, is effective in delaying wrinkle development and aiding in maintaining skin integrity. This assay is measures release of 4-nitroaniline from an Me-Suc-Ala-Ala-Pro-Val-pNA by human neutrophil elastase and can be quantified at 405 nm by comparing to solvent control.

IL-6 = experiment: Anti-inflammatory activity: IL-6 ELISA in LPS/Poly:IC stressed keratinocytes; type: cell-based, Human; settings: for % Reduction vs Treated / IL-6: stimulated NHEK, 24 hours
Procedure: Normal Human Epidermal Keratinocytes (NHEK) were stressed with a cocktail of lipopolysaccharide (LPS) and Polyinosinic-polycytidylic acid sodium salt (Poly:IC), external aggressors capable of inducing an inflammatory response. Stressed cells were subsequently treated with test articles and incubated for 24 hours. Reduction in inflammatory markers was measured by ELISA and % reduction calculated relative to solvent control.

[4] = Isopropyl lauroyl sarcosinate, 1 month
[5] = Isopropyl lauroyl sarcosinate, 1 week

O=C1c2c(O)cc(O)cc2O[C@H](c2ccc(O)cc2)[C@H]1O [dihydrokaempferol]
% remaining ([1]; Dimethyl isosorbide, 1 month): 91%
Concentration (% w/w) 1 month ([1]; Dimethyl isosorbide, 1 month): 6.04 % w/w
% remaining ([1]; Dimethyl isosorbide, 1 week): 95%
Concentration (% w/w) 1 week ([1]; Dimethyl isosorbide, 1 week): 6.33 % w/w
Concentration (% w/w) Initial ([1]; Dimethyl isosorbide): 6.66 % w/w
% remaining ([1]; Ethoxydiglycol, 1 month): 84%
Concentration (% w/w) 1 month ([1]; Ethoxydiglycol, 1 month): 6.54 % w/w
% remaining ([1]; Ethoxydiglycol, 1 week): 94%
Concentration (% w/w) 1 week ([1]; Ethoxydiglycol, 1 week): 7.27 % w/w
Concentration (% w/w) Initial ([1]; Ethoxydiglycol): 7.74 % w/w
% remaining [1, 4]: 92%
Concentration (% w/w) 1 month [1, 4]: 7.71 % w/w
% remaining [1, 5]: 97%
Concentration (% w/w) 1 week [1, 5]: 8.14 % w/w
Concentration (% w/w) Initial ([1]; Isopropyl lauroyl sarcosinate): 8.40 % w/w
% Radical Inhibition ([2]; ABTS, 0.00625 % w/w): 32.55%
% Radical Inhibition ([2]; ABTS, 0.0125 % w/w): 42.49%
% Radical Inhibition ([2]; ABTS, 0.025 % w/w): 56.17%
IC50 antioxidant activity ([2]; ABTS, aqueous solvent system, calculated): 0.0143 % w/w
Lowest concentration with antioxidant activity ([2]; aqueous systems): 0.00625 % w/w
Lowest concentration inhibiting elastase enzyme activity [3]: 0.1 % w/w
inhibition at 0.02 % strength ([3]; 0.020 % w/w): 0%
inhibition at 0.1 % strength ([3]; 0.100 % w/w): 29.6%
inhibition at 0.5 % strength ([3]; 0.500 % w/w): 81.5%
IC50 elastase enzyme inhibition ([3]; calculated): 0.13 % w/w
% Reduction vs Treated (IL-6; 0.001% DHK): 31.32%
IL-6 (IL-6; 0.001% DHK): 838.7 pg/mL
% Reduction vs Treated (IL-6; 0.002% DHK): 43.70%
IL-6 (IL-6; 0.002% DHK): 687.5 pg/mL
% Reduction vs Treated (IL-6; 0.003% DHK): 64.79%
IL-6 (IL-6; 0.003% DHK): 430.0 pg/mL
Reduction of inflammatory marker IL-6 (up to) (IL-6; in vitro, summary of Table 9): up to 64.79%
